What was measured:
Assay type in all cases: cell-based
[1] = system: Cupriavidus metallidurans MSR33; experiment: Minimum inhibitory concentration (MIC) of heavy metals in agar plates, strain MSR33; conditions: for Improved resistance (fold): MIC of MSR33 relative to CH34; for MIC, strain MSR33: agar plates, Tris mineral salts medium, increasing metal concentrations
Text: (§1) The increase of the heavy metal resistance of the novel strain Cupriavidus metallidurans MSR33 was confirmed measuring minimum inhibitory concentration (MIC) of heavy metals in agar plates containing Tris mineral salts medium supplemented with increasing heavy metal concentrations and the organomercurial compound methylmercury.

[2] = system: Cupriavidus metallidurans CH34; experiment: Minimum inhibitory concentration (MIC) of heavy metals in agar plates, strain CH34; conditions: Tris mineral salts medium, increasing metal concentrations
Text: as §1

[3] = system: Cupriavidus metallidurans MSR33; experiment: Growth in Tris mineral salts medium with Hg(II) added at mid-exponential phase, strain MSR33; conditions: Hg(II) 8 μg/g added at mid-exponential phase, succinate
Method: (§2) To characterize the novel mercury resistance capabilities, the recombinant strain Cupriavidus metallidurans MSR33 was grown in minimal medium supplemented with succinate as sole carbon source and energy and in the presence or absence of mercury. Cupriavidus metallidurans strain CH34 was also grown in these conditions.
(§3) The growth of both strains is similar in absence of Hg (II).

[4] = system: Cupriavidus metallidurans strain CH34; experiment: Growth in Tris mineral salts medium with Hg(II) added at exponential phase, strain CH34; conditions: Hg^2+ 8 μg/g added at exponential phase, succinate
Method: as §2, §3

Row | SMILES | Improved resistance (fold) [1] [fold] | MIC, strain MSR33 [1] [µg/g] | MIC, strain CH34 ([2]; parental strain CH34) [µg/g] | effect on growth of strain MSR33 [3] | effect on growth of strain CH34 [4] | MIC, strain CH34 ([2]; parental strain CH34, listed as CH3Hg^+)
1 | [Cd+2] [Cd^2+] | 1.6 | 160 | 100 |  |  | 
2 | [Cu+2] [Cu^2+] |  | 240 | 240 |  |  | 
3 | [Hg+2] [Hg^2+] | 2.4 | 24 | 10 | do not affect the growth | no further growth | 
4 | [CH3][Hg][Cl] [MeHg^+, methylmercury] | >18.0 | 18 | <1 |  |  | sensitive
